The values that follow come from patent publication US20260115209A1, “COMBINATION THERAPY INCLUDING COX-2 INHIBITOR FOR THE TREATMENT OF CANCER” (THE REGENTS OF THE UNIVERSITY OF CALIFORNIA, priority 2022, published 2026).

Common to all, as to type: cell-based
One assay relates to VACO432. As to the kind of experiment: Cell viability assay (CellTiter-Glo), GI50, 3-day treatment. Conditions: 72 h; VACO432 (BRAF^V600E CRC); 50% growth inhibition after 3 days of treatment compared to control; read-out: GI50 concentrations. The procedure:
(§1) To assess the growth/survival response of cell lines to single or combinatorial drug treatments, we used CellTiter-Glo cell viability assay (Promega; cat #G7571). Cell culture and luminescence readouts were performed in 96- and 384-well plates after 3-day treatments. GI50 corresponds to the concentration of a given drug that causes 50% inhibition of cell growth (GI50). The effects of drug combinations on cell growth were assessed by calculating fold change in VEM-sensitivity and combination index (C.I.) that were experimentally measured from ≥9 individual datapoints around drugs' GI50, i.e. at GI50, 0.5×GI50, 2×GI50 concentrations of each drug per drug combination experiment. To address the particular effects of some drug treatments on some cell lines, the choice of experimental datapoints centered around drugs' GI50 effects was adjusted by including individual datapoints ranging from ≥GI25 to ≤GI75, leading to calculate fold change in VEM-sensitivity and combination index (C.I.) from 12 to 20 individual datapoints, as previously explained (7).

Another assay deals with LIM2405. The description is as above. Particulars: 72 h; LIM2405 (BRAF^V600E CRC); 50% growth inhibition after 3 days of treatment compared to control; read-out: GI50 concentrations. The procedure: as §1
In a further assay the test system is LS411N. The description is as above. Conditions: Homo sapiens, LS-411N, 72 h; LS411N (BRAF^V600E CRC); 50% growth inhibition after 3 days of treatment compared to control; read-out: GI50 concentrations. The procedure:
as §1

The subject of another assay is Sk-Mel-28. The assay is described as above. Particulars: Homo sapiens, 72 h; Sk-Mel-28 (BRAF^V600E melanoma); 50% growth inhibition after 3 days of treatment compared to control; read-out: GI50 concentrations. The procedure:
as §1

A further assay concerns KM20. Described as above. Particulars: 72 h; KM20 (BRAF^V600E CRC); 50% growth inhibition after 3 days of treatment compared to control; read-out: GI50 concentrations. The procedure: as §1
In a further assay the test system is A375. The assay is described as above. Particulars: Homo sapiens, A-375, 72 h; A375 (BRAF^V600E melanoma); 50% growth inhibition after 3 days of treatment compared to control; read-out: GI50 concentrations. The method, then: as §1
Another assay deals with SNUC5. The description is as above. Particulars: 72 h; SNUC5 (BRAF^V600E CRC); 50% growth inhibition after 3 days of treatment compared to control; read-out: GI50 concentrations. The procedure:
as §1

In a further assay the test system is HT29. Described as above. Conditions: Homo sapiens, HT-29, 72 h; HT29 (BRAF^V600E CRC); 50% growth inhibition after 3 days of treatment compared to control; read-out: GI50 concentrations. The procedure: as §1
In the next assay the test system is OUMS23. Described as above. Conditions: OUMS-23, 72 h; OUMS23 (CRC MAP3K8^amp); 50% growth inhibition after 3 days of treatment compared to control; read-out: GI50 concentrations. The procedure:
as §1

Another assay concerns RKO1. The description is as above. Conditions: 72 h; RKO1 (BRAF^V600E CRC); 50% growth inhibition after 3 days of treatment compared to control; read-out: GI50 concentrations. The method, then:
as §1

Another assay relates to WiDr. The description is as above. Conditions: Homo sapiens, 72 h; WiDr (BRAF^V600E CRC); 50% growth inhibition after 3 days of treatment compared to control; read-out: GI50 concentrations. The method, then:
as §1

The subject of another assay is SFK. As to the kind of experiment: Western blot of SFK activation (Y419 phosphorylation). Particulars: BRAF^V600E CRC cell lines. The method, then:
For samples to be analyzed with the HT-KAM platform, cells at ˜85% confluency were washed three times with cold PBS and lysed with freshly prepared 1× cell lysis buffer (1 ml per 2.5×10^6 cells) (lOX Cell Lysis Buffer, Cell Signaling; cat. #9803) complemented with 1× of Halt Protease & Phosphatase (100×, ThermoScientific; cat. #1861281). Cell lysates were collected and spun down at 14,000 rpm for 15 min at 4° C. and supernatants stored at −80° C. For samples to be analyzed by western blot, cell lysates were prepared with RIPA lysis buffer (150 mM NaCl, 0.1% SDS, 1% Nonidet P40, 1% sodium deoxycholate and 10 mM sodium phosphate, pH 7.2) supplemented with protease and phosphatase inhibitors. After clearing by centrifugation at 12,000 rpm for 10 minutes at 4° C., the lysates were analyzed as described in the respective experiments.
For western-blot, samples were denatured by boiling in 1× Laemmli buffer and run on an 8% SDS-PAGE gel. After transfer onto a PVDF membrane and blocking with 3% BSA, the membranes were incubated with primary antibodies overnight at 4° C., washed 3 times with TBST (Tris-buffered saline containing 0.05% Tween-20), incubated with secondary antibodies for 1 hour at room temperature and developed using chemoluminescence (cat #32209 from Pierce).
Antibodies anti-HSP90 was procured from Santa Cruz Biotechnologies (H-114, cat #7947). […]

SMILES strings stand for the structures.

For `CCCS(=O)(=O)Nc1ccc(F)c(C(=O)c2c[nH]c3ncc(-c4ccc(Cl)cc4)cc23)c1F` [vemurafenib, N-[3-[5-(4-chlorophenyl)-1H-pyrrolo[2,3-b]pyridine-3-carbonyl]-2,4-difluorophenyl]propane-1-sulfonamide], the GI50 in the assay with VACO432 worked out at 1150 nM; with LIM2405 it was 150 nM; with LS411N, 1450 nM; with Sk-Mel-28, 150 nM; in the assay with KM20, 2000 nM; with A375, 10 nM. The GI50 was 2250 nM in the assay on SNUC5; 1750 nM in the assay with HT29; 1400 nM in the assay with OUMS23; 1700 nM in the assay with RKO1; 1500 nM in the assay with WiDr. Moreover, in the assay with SFK, the “SFK activation (phosphorylation of Y419)” value was “increased SFK activation”.
